# Measurements published in ChEMBL document CHEMBL1154203, “N-[(3S)-Pyrrolidin-3-yl]benzamides as novel dual serotonin and noradrenaline reuptake inhibitors: impact of small structural modifications on P-gp recognition and CNS penetration” (Bioorg Med Chem Lett, 2009).
# Experiments:
# [1] = biological target: Sodium-dependent serotonin transporter (Homo sapiens, UniProt P31645); test: biochemical
# Description: Displacement of [3H]5HT from human 5HT transporter expressed in HEK293 cells by scintillation counting
# [2] = biological target: Sodium-dependent noradrenaline transporter (Homo sapiens, UniProt P23975); test: biochemical
# Description: Displacement of [3H]noradrenaline from human NET receptor expressed in HEK293 cells by scintillation counting
# [3] = biological target: Sodium-dependent dopamine transporter (Homo sapiens, UniProt Q01959); test: biochemical
# Description: Displacement of [3H]dopamine from human DAT receptor expressed in HEK293 cells by scintillation counting
# [4] = biological target: Voltage-gated inwardly rectifying potassium channel KCNH2 (Homo sapiens, UniProt Q12809)
# in vitro = settings: human, liver microsomes
# Description: Intrinsic clearance in human liver microsomes
# MDR1 [5] = test: Permeability from apical to basolateral side of MDCK cells over expressing MDR1; type: ADME, cell-based, Canis lupus familiaris; settings: dog
# MDR1 [6] = test: Permeability from basolateral to apical side of MDCK cells over expressing MDR1; type: ADME, cell-based, Canis lupus familiaris; settings: dog
# MDR1 [7] = test: in vitro; settings: dog, MDCK-MDR1
# Description: Efflux ratio of permeability from apical to basolateral over basolateral to apical side in MDCK cells over expressing MDR1
# Plasma = test: fCmax in Beagle dog plasma; type: ADME, organism-based, Canis lupus familiaris; settings: in vivo
# Canis familiaris [8] = organism: Canis familiaris; test: Increase in peak urethral pressure in Beagle dog; type: functional, Canis lupus familiaris, Urethra
# [9] = Binding affinity to sodium channel
# [10] = Binding affinity to sigma opioid receptor
# [11] = biological target: Kappa-type opioid receptor (Homo sapiens, UniProt P41145); test: Binding affinity to kappa opioid receptor
# [12] = Lipophilicity, log D at pH 7.4; type: physicochemical; settings: buffer
# [13] = Dissociation constant, pKa of the compound; type: physicochemical
# [14] = Intrinsic clearance in human hepatocytes measured per million cells; type: ADME, cell-based, Liver, Hepatocyte
# Cytochrome P450 2D6 = Cytochrome P450 2D6 (Homo sapiens, UniProt P10635); test: Inhibition of CYP2D6; type: ADME
# Cytochrome P450 1A2 = biological target: T1, Cytochrome P450 1A2 (Homo sapiens, UniProt P05177); test: Inhibition of CYP1A2; type: ADME
# T1 sequence (P05177 whole entry): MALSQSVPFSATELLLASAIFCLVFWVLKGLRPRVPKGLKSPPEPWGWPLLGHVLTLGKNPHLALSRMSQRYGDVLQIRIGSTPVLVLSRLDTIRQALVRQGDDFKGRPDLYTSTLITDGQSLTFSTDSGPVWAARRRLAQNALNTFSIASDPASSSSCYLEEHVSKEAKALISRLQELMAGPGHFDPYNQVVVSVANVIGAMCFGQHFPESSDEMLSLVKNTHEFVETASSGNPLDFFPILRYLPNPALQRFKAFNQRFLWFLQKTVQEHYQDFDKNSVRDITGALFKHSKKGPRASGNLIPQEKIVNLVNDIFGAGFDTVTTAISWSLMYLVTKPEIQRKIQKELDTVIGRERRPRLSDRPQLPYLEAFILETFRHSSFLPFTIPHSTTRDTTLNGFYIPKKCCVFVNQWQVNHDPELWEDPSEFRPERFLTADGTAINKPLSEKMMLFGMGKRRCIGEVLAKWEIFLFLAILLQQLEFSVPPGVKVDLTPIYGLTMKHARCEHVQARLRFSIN
# Cytochrome P450 2C9 = Cytochrome P450 2C9 (Homo sapiens, UniProt P11712); test: Inhibition of CYP2C9; type: ADME
# Cytochrome P450 2C19 = Cytochrome P450 2C19 (Homo sapiens, UniProt P33261); test: Inhibition of CYP2C19; type: ADME
# Cytochrome P450 3A4 [15] = biological target: T2, Cytochrome P450 3A4 (Homo sapiens, UniProt P08684); test: Inhibition of CYP3A4 using felodipine as a substrate; type: ADME
# Cytochrome P450 3A4 [16] = biological target: T2, Cytochrome P450 3A4; test: Inhibition of CYP3A4 using midazolam as a substrate; type: ADME
# Cytochrome P450 3A4 [17] = biological target: T2, Cytochrome P450 3A4; test: Inhibition of CYP3A4 using testosterone as a substrate; type: ADME
# [18] = Apparent permeability from apical to basolateral side of human Caco-2 cells at 10 uM; type: ADME, cell-based
# [19] = Apparent permeability from basolateral to apical side of human Caco-2 cells at 10 uM; type: ADME, cell-based
# Canis familiaris [20] = organism: Canis familiaris; test: Toxicity in Beagle dog after 14 days; type: organism-based, Canis lupus familiaris; settings: in vivo, 336 h
# Rattus norvegicus [21] = organism: Rattus norvegicus; test: Toxicity in rat after 14 days; type: organism-based; settings: in vivo, 336 h
# Rattus norvegicus [22] = test: Toxicity in rat assessed as effect on locomotor activity at 15 mg/kg, po after 14 days; type: organism-based; parameters: dose 15 mg/kg, route oral; settings: in vivo, 336 h
# [23] = Ratio of drug level from CSF to plasma in Beagle dog; type: ADME, Canis lupus familiaris
# Chain of Voltage-gated inwardly rectifying potassium channel KCNH2 (Q12809 whole entry): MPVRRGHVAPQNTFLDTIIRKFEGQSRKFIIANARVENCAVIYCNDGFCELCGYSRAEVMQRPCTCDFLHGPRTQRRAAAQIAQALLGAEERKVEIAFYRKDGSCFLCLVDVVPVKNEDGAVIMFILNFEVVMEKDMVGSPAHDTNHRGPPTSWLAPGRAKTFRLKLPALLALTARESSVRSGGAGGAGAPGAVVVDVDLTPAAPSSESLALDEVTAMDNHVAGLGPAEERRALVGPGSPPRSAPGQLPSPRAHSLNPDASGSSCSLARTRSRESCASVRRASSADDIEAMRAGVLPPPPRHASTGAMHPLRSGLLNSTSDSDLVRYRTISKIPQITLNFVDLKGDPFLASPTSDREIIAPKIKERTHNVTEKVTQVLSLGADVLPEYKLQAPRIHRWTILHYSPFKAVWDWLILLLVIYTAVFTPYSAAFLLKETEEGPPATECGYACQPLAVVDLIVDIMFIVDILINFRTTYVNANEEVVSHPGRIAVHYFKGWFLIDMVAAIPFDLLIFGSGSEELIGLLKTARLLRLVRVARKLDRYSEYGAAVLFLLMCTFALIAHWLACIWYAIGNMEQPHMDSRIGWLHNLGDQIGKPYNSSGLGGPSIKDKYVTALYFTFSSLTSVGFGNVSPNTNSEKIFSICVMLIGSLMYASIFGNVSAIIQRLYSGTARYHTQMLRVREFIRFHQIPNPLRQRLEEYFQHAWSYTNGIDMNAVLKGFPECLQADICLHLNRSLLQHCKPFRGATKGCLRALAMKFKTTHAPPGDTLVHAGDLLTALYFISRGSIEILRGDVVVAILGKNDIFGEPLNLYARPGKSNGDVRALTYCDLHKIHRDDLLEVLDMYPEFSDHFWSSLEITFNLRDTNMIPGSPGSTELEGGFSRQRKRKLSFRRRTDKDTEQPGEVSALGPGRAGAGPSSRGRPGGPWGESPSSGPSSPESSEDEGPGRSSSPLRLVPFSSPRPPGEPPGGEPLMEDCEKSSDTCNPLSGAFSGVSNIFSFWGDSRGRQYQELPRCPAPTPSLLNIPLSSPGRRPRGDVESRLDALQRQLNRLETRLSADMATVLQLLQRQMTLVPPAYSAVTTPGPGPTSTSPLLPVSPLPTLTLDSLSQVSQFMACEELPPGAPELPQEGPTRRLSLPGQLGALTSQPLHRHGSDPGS
# Chain of Sodium-dependent noradrenaline transporter (P23975 whole entry): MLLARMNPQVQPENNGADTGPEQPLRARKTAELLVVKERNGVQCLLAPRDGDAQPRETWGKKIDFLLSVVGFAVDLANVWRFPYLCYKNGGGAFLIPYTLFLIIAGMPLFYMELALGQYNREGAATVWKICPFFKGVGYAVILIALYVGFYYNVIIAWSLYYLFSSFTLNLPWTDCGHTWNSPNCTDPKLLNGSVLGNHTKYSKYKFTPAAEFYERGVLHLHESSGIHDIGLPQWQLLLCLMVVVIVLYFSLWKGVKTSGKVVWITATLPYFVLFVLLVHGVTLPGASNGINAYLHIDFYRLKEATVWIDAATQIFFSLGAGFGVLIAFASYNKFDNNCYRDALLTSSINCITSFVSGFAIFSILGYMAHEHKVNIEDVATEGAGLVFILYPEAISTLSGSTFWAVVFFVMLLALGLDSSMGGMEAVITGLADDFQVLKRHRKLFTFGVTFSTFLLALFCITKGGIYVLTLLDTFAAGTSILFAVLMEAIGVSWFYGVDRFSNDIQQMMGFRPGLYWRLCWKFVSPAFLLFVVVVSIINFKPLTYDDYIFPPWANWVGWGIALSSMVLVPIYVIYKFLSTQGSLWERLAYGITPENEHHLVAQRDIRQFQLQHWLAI
# T2 sequence (P08684 whole entry): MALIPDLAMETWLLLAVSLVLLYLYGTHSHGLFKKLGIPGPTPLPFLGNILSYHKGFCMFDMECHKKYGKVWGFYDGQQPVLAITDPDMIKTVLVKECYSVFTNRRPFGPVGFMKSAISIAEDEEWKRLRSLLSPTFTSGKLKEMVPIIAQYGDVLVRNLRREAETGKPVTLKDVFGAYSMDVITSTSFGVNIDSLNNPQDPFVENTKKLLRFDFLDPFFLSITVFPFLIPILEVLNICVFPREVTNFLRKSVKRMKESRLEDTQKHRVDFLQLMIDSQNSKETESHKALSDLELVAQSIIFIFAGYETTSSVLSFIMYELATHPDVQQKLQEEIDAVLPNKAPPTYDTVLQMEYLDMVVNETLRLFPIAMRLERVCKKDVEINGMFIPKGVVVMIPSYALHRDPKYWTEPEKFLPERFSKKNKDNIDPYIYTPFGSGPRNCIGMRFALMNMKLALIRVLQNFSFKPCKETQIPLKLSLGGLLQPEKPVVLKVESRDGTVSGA
# Chain of Sodium-dependent serotonin transporter (P31645 whole entry): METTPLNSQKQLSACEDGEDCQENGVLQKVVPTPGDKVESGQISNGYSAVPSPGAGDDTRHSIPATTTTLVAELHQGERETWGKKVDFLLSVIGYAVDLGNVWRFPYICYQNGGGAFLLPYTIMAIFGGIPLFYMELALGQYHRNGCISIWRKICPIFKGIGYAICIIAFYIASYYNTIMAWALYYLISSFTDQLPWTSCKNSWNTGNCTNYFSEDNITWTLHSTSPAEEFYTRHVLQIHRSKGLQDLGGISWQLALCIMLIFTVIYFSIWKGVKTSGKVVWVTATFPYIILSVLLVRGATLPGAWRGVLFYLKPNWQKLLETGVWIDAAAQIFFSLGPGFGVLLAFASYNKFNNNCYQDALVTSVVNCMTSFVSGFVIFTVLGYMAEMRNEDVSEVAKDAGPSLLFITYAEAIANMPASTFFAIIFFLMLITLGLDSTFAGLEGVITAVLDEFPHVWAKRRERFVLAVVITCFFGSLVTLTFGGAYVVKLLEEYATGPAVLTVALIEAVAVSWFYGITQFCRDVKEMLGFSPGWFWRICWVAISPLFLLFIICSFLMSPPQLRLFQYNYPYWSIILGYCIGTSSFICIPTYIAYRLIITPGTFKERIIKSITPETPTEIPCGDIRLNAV
# Chain of Sodium-dependent dopamine transporter (Q01959 whole entry): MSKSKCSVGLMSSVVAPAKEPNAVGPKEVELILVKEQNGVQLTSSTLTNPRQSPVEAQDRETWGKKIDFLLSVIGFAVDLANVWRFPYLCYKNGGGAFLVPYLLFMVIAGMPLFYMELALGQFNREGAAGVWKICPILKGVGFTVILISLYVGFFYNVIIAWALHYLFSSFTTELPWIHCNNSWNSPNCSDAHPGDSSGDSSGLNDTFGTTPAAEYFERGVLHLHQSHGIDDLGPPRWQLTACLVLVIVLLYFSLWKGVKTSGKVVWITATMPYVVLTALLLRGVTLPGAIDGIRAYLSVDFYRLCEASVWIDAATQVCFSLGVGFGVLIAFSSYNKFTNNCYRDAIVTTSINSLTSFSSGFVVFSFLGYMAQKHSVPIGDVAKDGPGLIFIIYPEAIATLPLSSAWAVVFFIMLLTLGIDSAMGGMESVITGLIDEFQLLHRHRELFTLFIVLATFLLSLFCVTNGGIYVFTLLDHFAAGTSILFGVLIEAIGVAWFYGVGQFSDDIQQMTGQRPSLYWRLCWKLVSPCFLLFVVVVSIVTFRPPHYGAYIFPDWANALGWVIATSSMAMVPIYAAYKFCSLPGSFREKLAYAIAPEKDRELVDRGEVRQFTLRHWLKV
# Chain of Kappa-type opioid receptor (P41145 whole entry): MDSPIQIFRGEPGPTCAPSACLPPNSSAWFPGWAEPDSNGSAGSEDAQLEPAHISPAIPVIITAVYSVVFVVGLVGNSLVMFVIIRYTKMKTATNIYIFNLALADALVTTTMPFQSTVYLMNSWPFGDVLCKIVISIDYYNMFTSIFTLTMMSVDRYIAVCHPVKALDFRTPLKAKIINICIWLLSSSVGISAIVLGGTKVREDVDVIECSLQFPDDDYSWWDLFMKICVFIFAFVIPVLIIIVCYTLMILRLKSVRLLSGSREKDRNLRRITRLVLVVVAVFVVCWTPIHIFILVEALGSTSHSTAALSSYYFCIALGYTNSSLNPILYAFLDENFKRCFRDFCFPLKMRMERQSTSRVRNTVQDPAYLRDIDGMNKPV
# Chain of Cytochrome P450 2C9 (P11712 whole entry): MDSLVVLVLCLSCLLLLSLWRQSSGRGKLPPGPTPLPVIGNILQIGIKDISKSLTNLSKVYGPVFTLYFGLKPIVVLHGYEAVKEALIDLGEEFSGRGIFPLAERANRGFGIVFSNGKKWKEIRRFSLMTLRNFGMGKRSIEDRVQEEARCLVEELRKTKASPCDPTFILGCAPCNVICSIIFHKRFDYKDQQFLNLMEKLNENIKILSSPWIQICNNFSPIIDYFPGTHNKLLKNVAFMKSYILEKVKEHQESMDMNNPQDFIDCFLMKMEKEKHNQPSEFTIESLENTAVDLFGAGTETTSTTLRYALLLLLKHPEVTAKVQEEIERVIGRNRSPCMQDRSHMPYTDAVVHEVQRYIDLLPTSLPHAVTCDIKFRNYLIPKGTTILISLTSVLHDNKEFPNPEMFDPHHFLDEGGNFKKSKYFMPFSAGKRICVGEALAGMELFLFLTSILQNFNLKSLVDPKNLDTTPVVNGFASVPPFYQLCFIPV
# Chain of Cytochrome P450 2D6 (P10635 whole entry): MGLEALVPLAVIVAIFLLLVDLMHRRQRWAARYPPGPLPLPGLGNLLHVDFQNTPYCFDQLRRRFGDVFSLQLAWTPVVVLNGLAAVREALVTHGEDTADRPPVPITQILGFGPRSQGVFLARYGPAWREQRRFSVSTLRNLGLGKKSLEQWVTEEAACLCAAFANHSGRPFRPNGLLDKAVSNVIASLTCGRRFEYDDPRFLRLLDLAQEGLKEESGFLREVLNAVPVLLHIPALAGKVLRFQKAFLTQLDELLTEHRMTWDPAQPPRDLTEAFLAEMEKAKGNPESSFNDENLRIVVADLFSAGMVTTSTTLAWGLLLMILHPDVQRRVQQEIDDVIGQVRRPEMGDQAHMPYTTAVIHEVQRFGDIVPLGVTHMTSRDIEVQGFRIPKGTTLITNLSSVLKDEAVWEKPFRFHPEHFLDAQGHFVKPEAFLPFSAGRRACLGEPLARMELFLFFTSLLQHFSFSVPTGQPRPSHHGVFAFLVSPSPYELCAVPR
structure (smiles),measurement,setting,value
CC(C)CN(C(=O)c1cccc(C(F)(F)F)c1Cl)[C@H]1CCNC1,Ki,[1],11 nM
same,Ki,[2],103 nM
same,Ki,[3],2070 nM
CC(C)CN(C(=O)c1cc(Cl)ccc1Cl)[C@H]1CCNC1,IC50,[4],19800 nM
same,microsomal CLint,in vitro,29 µL/min/mg
same,Ki,[1],54 nM
same,Ki,[2],198 nM
same,Ki,[3],2430 nM
CC(C)CN(C(=O)c1cccc(Cl)c1F)[C@H]1CCNC1,IC50,[4],> 10000 nM
same,microsomal CLint,in vitro,26 µL/min/mg
same,Ki,[1],10 nM
same,Ki,[2],139 nM
same,Ki,[3],2560 nM
CC(C)CN(C(=O)c1cccc(F)c1C(F)(F)F)[C@H]1CCNC1,IC50,[4],> 10000 nM
same,Ki,[1],25 nM
same,Ki,[2],26 nM
CC(C)CN(C(=O)c1ccc(F)cc1Cl)[C@H]1CCNC1,microsomal CLint,in vitro,20 µL/min/mg
same,Ki,[1],7 nM
same,Ki,[2],263 nM
same,Ki,[3],2540 nM
Cc1c(Cl)cccc1C(=O)N(CC(C)C)[C@H]1CCNC1,IC50,[4],52400 nM
same,microsomal CLint,in vitro,26 µL/min/mg
same,Ki,[1],3 nM
same,Ki,[2],29 nM
same,Ki,[3],516 nM
Cc1c(F)cccc1C(=O)N(CC(C)C)[C@H]1CCNC1,microsomal CLint,in vitro,21 µL/min/mg
same,Ki,[1],13 nM
same,Ki,[2],69 nM
same,Ki,[3],1610 nM
CC(C)CN(C(=O)c1cccc(F)c1Cl)[C@H]1CCNC1,microsomal CLint,in vitro,20 µL/min/mg
same,Ki,[1],15 nM
same,Ki,[2],67 nM
same,Ki,[3],2370 nM
CC(C)CN(C(=O)c1ccccc1C(C)C)[C@H]1CCNC1,IC50,[4],12900 nM
same,microsomal CLint,in vitro,< 7 µL/min/mg
same,Ki,[1],1320 nM
same,Ki,[2],65 nM
same,Ki,[3],3590 nM
CC(C)CN(C(=O)c1cccc(Cl)c1Cl)[C@@H]1CCNC1,Ki,[1],13 nM
same,Ki,[2],169 nM
same,Ki,[3],3090 nM
CCN(C(=O)c1cccc(Cl)c1Cl)[C@H]1CCNC1,IC50,[4],> 20000 nM
same,microsomal CLint,in vitro,< 13 µL/min/mg
same,Ki,[1],29 nM
same,Ki,[2],217 nM
same,Ki,[3],1090 nM
CC(C)CN(C(=O)c1cc(Cl)cc(Cl)c1)[C@H]1CCNC1,IC50,[4],> 10000 nM
same,Ki,[1],6 nM
same,Ki,[2],43 nM
same,Ki,[3],3070 nM
CC(C)CN(C(=O)c1ccc(Cl)c(Cl)c1)[C@H]1CCNC1,microsomal CLint,in vitro,36 µL/min/mg
same,Ki,[1],4 nM
same,Ki,[2],50 nM
same,Ki,[3],430 nM
CC(C)CN(C(=O)c1cccc(Cl)c1)[C@H]1CCNC1,microsomal CLint,in vitro,23.5 µL/min/mg
same,Ki,[1],19 nM
same,Ki,[2],135 nM
same,Ki,[3],1330 nM
O=C(c1cccc(Cl)c1Cl)N(C1=CCOC=C1)[C@H]1CCNC1,Papp A→B,MDR1 [5],1 ×10⁻⁶ cm/s
same,Papp B→A,MDR1 [6],20 ×10⁻⁶ cm/s
same,IC50,[4],> 40000 nM
same,microsomal CLint,in vitro,13 µL/min/mg
same,efflux ratio,MDR1 [7],20
same,Ki,[1],6 nM
same,Ki,[2],10 nM
same,Ki,[3],945 nM
O=C(c1cccc(Cl)c1Cl)N(c1ccccc1)[C@H]1CCNC1,IC50,[4],7920 nM
same,microsomal CLint,in vitro,< 25 µL/min/mg
same,Ki,[1],3 nM
same,Ki,[2],11 nM
same,Ki,[3],501 nM
CC(C)CN(C(=O)c1ccc(Cl)cc1Cl)[C@H]1CCNC1,microsomal CLint,in vitro,26 µL/min/mg
same,Ki,[1],3 nM
same,Ki,[2],37 nM
same,Ki,[3],2400 nM
CCCN(C(=O)c1cccc(Cl)c1Cl)[C@H]1CCNC1,IC50,[4],> 18600 nM
same,microsomal CLint,in vitro,< 7 µL/min/mg
same,Ki,[1],16 nM
same,Ki,[2],36 nM
same,Ki,[3],630 nM
CC(C)CN(C(=O)c1cccc(Cl)c1Cl)[C@H]1CCNC1,fCmax,Plasma,5 nM
same,Activity,Canis familiaris [8],35%
same,Papp A→B,MDR1 [5],16 ×10⁻⁶ cm/s
same,Papp B→A,MDR1 [6],43 ×10⁻⁶ cm/s
same,IC50,[9],3600 nM
same,IC50,[10],5100 nM
same,IC50,[11],5800 nM
same,logD,[12],0.6
same,pKa,[13],10
same,hepatocyte CLint,[14],3 µL/min/1e6 cells
same,IC50,Cytochrome P450 2D6,> 30000 nM
same,IC50,Cytochrome P450 1A2,> 30000 nM
same,IC50,Cytochrome P450 2C9,> 30000 nM
same,IC50,Cytochrome P450 2C19,> 30000 nM
same,IC50,Cytochrome P450 3A4 [15],> 30000 nM
same,IC50,Cytochrome P450 3A4 [16],> 30000 nM
same,IC50,Cytochrome P450 3A4 [17],> 30000 nM
same,Papp A→B at 10 µM,[18],12 ×10⁻⁶ cm/s
same,Papp B→A at 10 µM,[19],26 ×10⁻⁶ cm/s
same,Activity,Canis familiaris [20],Non-toxic
same,Activity,Rattus norvegicus [21],Non-toxic
same,Activity,Rattus norvegicus [22],Non-toxic
same,IC50,[4],20000 nM
same,microsomal CLint,in vitro,11 µL/min/mg
same,efflux ratio,MDR1 [7],2.7
same,Ki,[1],6 nM
same,Ki,[2],21 nM
same,Ki,[3],544 nM
O=C(c1cccc(Cl)c1Cl)N(CC(F)(F)F)[C@H]1CCNC1,microsomal CLint,in vitro,< 8 µL/min/mg
same,Ki,[1],39 nM
same,Ki,[2],95 nM
same,Ki,[3],3730 nM
O=C(c1cccc(Cl)c1Cl)N(CCC1CC1)[C@H]1CCNC1,IC50,[4],7140 nM
same,microsomal CLint,in vitro,26 µL/min/mg
same,Ki,[1],15 nM
same,Ki,[2],24 nM
same,Ki,[3],404 nM
CC(C)(C)CN(C(=O)c1cccc(Cl)c1Cl)[C@H]1CCNC1,Ki,[1],4 nM
same,Ki,[2],13 nM
same,Ki,[3],273 nM
O=C(c1cccc(Cl)c1Cl)N(C1CCCC1)[C@H]1CCNC1,Papp A→B,MDR1 [5],10 ×10⁻⁶ cm/s
same,Papp B→A,MDR1 [6],64 ×10⁻⁶ cm/s
same,microsomal CLint,in vitro,< 7 µL/min/mg
same,Ki,[1],6 nM
same,Ki,[2],11 nM
same,Ki,[3],983 nM
CCC(CC)N(C(=O)c1cccc(Cl)c1Cl)[C@H]1CCNC1,IC50,[4],7740 nM
same,microsomal CLint,in vitro,34 µL/min/mg
same,Ki,[1],20 nM
same,Ki,[2],37 nM
same,Ki,[3],2600 nM
CC(C)C(=O)N(Cc1cccc(Cl)c1Cl)[C@H]1CCNC1,Papp A→B,MDR1 [5],15 ×10⁻⁶ cm/s
same,Papp B→A,MDR1 [6],64 ×10⁻⁶ cm/s
same,Kp,[23],0.1
same,microsomal CLint,in vitro,< 7.6 µL/min/mg
same,efflux ratio,MDR1 [7],4.3
same,Ki,[1],9 nM
same,Ki,[2],52 nM
same,Ki,[3],640 nM
